Drawing on patent US20030187023A1, “Sulfone derivatives, process for their production and use thereof” (priority 2000, published 2003), this text covers IC50 for 16 compounds.

pIC50: −log10 of the molar value.

In the assay the target is human FXa (Homo sapiens, UniProt P00742). Kind of assay: Human activated coagulation factor X (FXa) inhibiting effect. It is filed as biochemical. The note with it: human FXa (0.3 unit/ml), substrate S-2765, 37° C., tris buffer pH 8.3, absorbance at 405 nm. As to the method: (1) Human Activated Coagulation Factor X (FXa) Inhibiting Effect
Sequence of human FXa (P00742 235-488 limits assumed): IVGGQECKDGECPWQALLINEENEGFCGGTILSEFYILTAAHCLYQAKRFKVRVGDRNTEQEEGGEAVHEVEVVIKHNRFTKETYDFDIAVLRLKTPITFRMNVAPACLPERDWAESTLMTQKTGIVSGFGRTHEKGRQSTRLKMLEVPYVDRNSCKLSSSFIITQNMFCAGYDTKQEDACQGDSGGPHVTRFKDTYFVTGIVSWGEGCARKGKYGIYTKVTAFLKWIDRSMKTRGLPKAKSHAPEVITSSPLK
Sequence of human FXa (P00742 41-179 partner limits assumed): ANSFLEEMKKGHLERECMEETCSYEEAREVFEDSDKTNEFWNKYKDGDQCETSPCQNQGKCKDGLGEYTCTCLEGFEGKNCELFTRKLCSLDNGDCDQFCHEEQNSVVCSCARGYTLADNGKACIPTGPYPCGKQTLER
Method: A cuvette was charged with 225 μl of 0.05 M tris buffer (pH 8.3) containing 0.145 M sodium chloride and 2 mM calcium chloride, 5 μl of a sample (test compound dissolved in dimethyl sulfoxide) and 10 μl of human FXa (0.3 unit/ml), which were reacted at 37° C. for 10 minutes and then combined with 10 μl of a substrate (3 mM, S-2765) and further reacted at 37° C. for 10 minutes. Then the reaction was terminated by adding 25 μl of 50% aqueous acetic acid, and the change in the absorbance at 405 nm was determined using a spectrophotometer to calculate the concentration at which the FXa effect was inhibited by 50% (IC50).
“4-(6-Chloro-2-naphthyl)sulfonyl-N-methyl-N-[1-(2-methyl-4-pyridyl)-4-piperidinyl]propanamide [Example 42]”: the pIC50 was 7.21.
For `CC(=O)N(C)CCN(C(=O)CCS(=O)(=O)c1ccc2cc(Cl)ccc2c1)C1CCN(c2ccnc(C)c2)CC1` [Example 75, N-[2-(N-Acetyl-N-methylamino)ethyl]-3-(6-chloro-2-naphthyl)sulfonyl-N-[1-(2-methyl-4-pyridyl)-4-piperidyl]propanamide] the value was 7.23; for `COC(=O)CN(CCCS(=O)(=O)c1ccc2cc(Cl)ccc2c1)C(=O)C1CCN(c2ccncc2)CC1` [Example 14, Methyl 2-[N-[3-(6-chloro-2-naphthyl)sulfonylpropyl]-N-[[1-(4-pyridyl)-4-piperidinyl]carbonyl]amino]acetate], 7.22; for `CCOC(=O)CCN(C(=O)CCS(=O)(=O)c1ccc2cc(Cl)ccc2c1)C1CCN(c2ccncc2)CC1` [Example 34, Ethyl 3-[N-[3-(6-chloro-2-naphthyl)sulfonylpropioyl]-N-[1-(4-pyridyl)-4-piperidyl]amino]propionate], 7.43.
For the compound `Cc1cc(N2CCC(N(Cc3ccccn3)C(=O)CCS(=O)(=O)c3ccc4cc(Cl)ccc4c3)CC2)ccn1` [Example 129, 3-(6-Chloro-2-naphthyl)sulfonyl-N-[1-(2-methyl-4-pyridyl)-4-piperidyl]-N-(2-pyridyl)methylpropanamide], the pIC50 is 7.18. This pIC50 is 0.25 log units lower than that of the compound before.
For “4-(6-Chloro-2-naphthyl)sulfonyl-N-methyl-N-[1-(4-pyridyl)-4-piperidyl]propanamide [Example 31]” the value was 7.30; for `CC(=O)NCCN(C(=O)CCS(=O)(=O)c1ccc2cc(Cl)ccc2c1)C1CCN(c2ccnc(C)c2)CC1` [Example 52, N-(2-Acetylaminoethyl)-3-(6-chloro-2-naphthyl)sulfonyl-N-[1-(2-methyl-4-pyridyl)-4-piperidyl]propanamide], 7.31; for `Cc1cc(N2CCC(N(C)C(=O)CCS(=O)(=O)c3ccc4cc(Cl)ccc4c3)CC2)cc(C)n1` [Example 118, 3-(6-Chloro-2-naphthyl)sulfonyl-N-[1-(2,6-dimethyl-4-pyridyl)-4-piperidyl]-N-propanamide], 7.20.
For the compound `CC(=O)NCCN(C(=O)CCS(=O)(=O)c1ccc2cc(Cl)ccc2c1)C1CCN(c2ccncc2)CC1` [Example 54, N-(2-Acetylaminoethyl)-3-(6-chloro-2-naphthyl)sulfonyl-N-[1-(4-pyridyl)-4-piperidyl]propanamide], the negative logarithm of the IC50 (pIC50) was 7.41.
In turn, `Cc1cc(N2CCC(N(CCC(=O)N3CC[S+]([O-])CC3)C(=O)CCS(=O)(=O)c3ccc4cc(Cl)ccc4c3)CC2)ccn1` [Example 68, 3-(6-Chloro-2-naphthyl)sulfonyl-N-[1-(2-methyl-4-pydiryl)-4-piperidyl]-N-[3-oxy-3-(1-oxothiomorpholin-4-yl)propyl]propionamide] gave a pIC50 of 7.47.
For `CCOC(=O)CCN(C(=O)CCS(=O)(=O)c1ccc2cc(Cl)ccc2c1)C1CCN(c2ccnc(C)c2)CC1` [Example 67, Ethyl 3-[N-[3-(6-chloro-2-naphthyl)sulfonylpropanoyl]-N-[1-(2-methyl-4-pyridyl)-4-piperidyl]amino]propionate] the value was 7.60; for `CN(CCCS(=O)(=O)c1ccc2cc(Cl)ccc2c1)C(=O)C1CCN(c2ccncc2)CC1` [Example 5, N-[3-(6-Chloro-2-naphthyl)sulfonylpropyl]-N-methyl-1-(4-pyridyl)-4-piperidinecarboxamide], 7.02; for “N-(2-Aminoethyl)-3-(6-chloro-2-naphthyl)sulfonyl-N-[1-(2-methyl-4-pyridyl)-4-piperidyl]propanamide ditrifluoroacetate [Example 53]”, 7.02.
For “4-(6-Bromo-2-naphthyl)sulfonyl-N-methyl-N-[1-(2-methyl-4-pyridyl)-4-piperidyl]propanamide [Example 64]” the value was 7.44; for `CS(=O)(=O)NCCN(C(=O)CCS(=O)(=O)c1ccc2cc(Cl)ccc2c1)C1CCN(c2ccncc2)CC1` [Example 55, 3-(6-Chloro-2-naphthyl)sulfonyl-N-(2-methylsulfonylaminoethyl)-N-[1-(4-pyridyl)-4-piperidyl]propanamide], 7.40; for `CCOC(=O)CN(C(=O)CCS(=O)(=O)c1ccc2cc(Cl)ccc2c1)C1CCN(c2ccncc2)CC1` [Example 33, Ethyl 2-[N-[3-(6-chloro-2-naphthyl)sulfonylpropioyl]-N-[1-(4-pyridyl)-4-piperidyl]amino]acetate], 7.26.

As usually defined, the pIC50 is −log10 of the IC50, conventionally taken in molar units. A lower pIC50 goes with a large IC50.
